Literature values, collected in US6548637B1, “Ligands for opioid receptors” (Sepracor, Inc., priority 1998, dated 2003).

Tested on: mice
Conditions: intracerebroventricular injections to mice

| SMILES | ED50 (analgesia) |
| --- | --- |
| NC(=O)[C@H](Cc1ccccc1)NC(=O)[C@H](Cc1c[nH]c2ccccc12)NC(=O)C1CCCN1C(=O)[C@@H](N)Cc1ccc(O)cc1 (stereo partly drawn) [Example 1, Tyr-Pro-Trp-Phe-NH2] | 8.4 µg |
| NC(=O)C(Cc1ccccc1)NC(=O)[C@H](Cc1ccccc1)NC(=O)C1CCCN1C(=O)[C@@H](N)Cc1ccc(O)cc1 (stereo partly drawn) [Example 2, Tyr-Pro-Phe-Phe-NH2] | 2.9 µg |
